The values that follow come from ChEMBL document CHEMBL3727356, “Therapeutic compounds and compositions” (2014).

Assay [1] addresses Pyruvate kinase PKLR (Homo sapiens, UniProt P30613, R532W). Put plainly: Activation of PKR R532W mutant (unknown origin) incubated for 60 mins in presence of ADP, PEP and NADH by Spectraax microplate reader based assay.
Assay [2] has as its target Pyruvate kinase PKLR (Homo sapiens, UniProt P30613, R510Q). The assay can be described thus: Activation of PKR R510Q mutant (unknown origin) incubated for 60 mins in presence of ADP, PEP and NADH by Spectraax microplate reader based assay.
Assay [3] addresses T1, Pyruvate kinase PKLR (Homo sapiens, UniProt P30613). Put plainly: Activation of wild type PKR (unknown origin) incubated for 60 mins in presence of ADP, PEP and NADH by Spectraax microplate reader based assay.
In assay [4] the target is T1, Pyruvate kinase PKLR. The assay can be described thus: Activation of wild type PKR (unknown origin) by cell based assay.

Usually AC50 stands for the concentration giving half of the maximal activity seen.

Sequence of Pyruvate kinase PKLR (Homo sapiens, UniProt P30613, R510Q) (P30613 whole entry R510Q): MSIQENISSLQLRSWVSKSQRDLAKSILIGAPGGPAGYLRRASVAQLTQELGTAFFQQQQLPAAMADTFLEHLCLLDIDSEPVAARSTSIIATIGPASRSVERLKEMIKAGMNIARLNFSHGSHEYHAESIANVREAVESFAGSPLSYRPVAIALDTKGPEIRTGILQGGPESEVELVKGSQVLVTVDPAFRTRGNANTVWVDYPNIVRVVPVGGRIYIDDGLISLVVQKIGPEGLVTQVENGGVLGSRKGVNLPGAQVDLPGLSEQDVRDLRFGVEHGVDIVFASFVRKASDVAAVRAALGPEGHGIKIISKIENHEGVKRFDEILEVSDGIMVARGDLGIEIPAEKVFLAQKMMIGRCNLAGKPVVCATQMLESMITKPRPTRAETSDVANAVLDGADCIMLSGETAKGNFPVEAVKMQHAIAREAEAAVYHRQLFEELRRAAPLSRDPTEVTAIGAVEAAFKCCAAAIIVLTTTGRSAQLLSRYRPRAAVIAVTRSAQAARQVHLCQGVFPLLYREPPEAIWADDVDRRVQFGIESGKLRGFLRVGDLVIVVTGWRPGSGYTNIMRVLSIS
Sequence of Pyruvate kinase PKLR (Homo sapiens, UniProt P30613, R532W) (P30613 whole entry R532W): as the sequence (P30613 whole entry R510Q) above, with Q510R, R532W counted along it
T1 sequence (P30613 whole entry): as the sequence (P30613 whole entry R510Q) above, with Q510R counted along it

With `Nc1nc2cc(S(=O)(=O)Nc3ccc(C(=O)N4CCC(O)(c5ccccc5Cl)CC4)cc3)c(F)cc2s1`, the AC50 in assay [1] and in assay [2] was over 10000 nM throughout.

As to `CC1(CC2(O)CCN(C(=O)c3ccc(NS(=O)(=O)c4cccc5scnc45)cc3)CC2)CC1`, the AC50 in assay [3], in assay [1] and in assay [2] was under 100 nM in each case.

In the case of `O=C(c1ccc(NS(=O)(=O)n2ccc3cccnc32)cc1)N1CCC(O)(c2ccccc2Cl)CC1`, the concentration at half-maximal activity (AC50) in assay [3], in assay [1] and in assay [2] was over 10000 nM in each case.

As to `O=C(c1ccc(NS(=O)(=O)c2cccc3c2OCC3)cc1)N1CCC(O)(c2ccccc2Cl)CC1`, the AC50 is at least 1010 nM in assay [3], at least 1010 nM in assay [1] and over 10000 nM in assay [2].

On to `O=C(c1ccc(NS(=O)(=O)c2cccc3scnc23)cc1)N1CCC(O)(c2cn[nH]c2)CC1`, for which the AC50 in assay [2] is over 10000 nM.

As for `O=C(c1ccc(NS(=O)(=O)c2cccc3ncccc23)cc1)N1CCC(O)(c2ccccc2)CC1`, in assay [2], the AC50 was over 10000 nM.

Turning to `O=C(c1ccc(NS(=O)(=O)c2ccc(F)c3cccnc23)cc1)N1CCC(O)(Cc2ccccc2F)CC1`, the AC50 in assay [3], in assay [1] and in assay [2] was under 100 nM each time.

As to `COc1nc(C(=O)N2CCC(O)(c3ccccc3)CC2)ccc1NS(=O)(=O)c1cccc2cccnc12`, in assay [2], the AC50 is over 10000 nM.

`O=C(c1ccc(NS(=O)(=O)c2cccc(OC(F)(F)F)c2)cc1)N1CCC(O)(Cc2ccccc2)CC1`: the AC50 in assay [2] was over 10000 nM.

Regarding `O=C(c1ccc(NS(=O)(=O)c2cccc3nsnc23)cc1)N1CCC(O)(c2ccccc2)CC1`, the AC50 in assay [2] is over 10000 nM.

With `CS(=O)(=O)CCC1(O)CCN(C(=O)c2ccc(NS(=O)(=O)c3cccc4scnc34)cc2)CC1`, the AC50 in assay [1] and in assay [2] was over 10000 nM each time.

With `CC(CC1(O)CCN(C(=O)c2ccc(NS(=O)(=O)c3cccc4c(O)ncnc34)cc2)CC1)C(F)(F)F` (centres undefined), the AC50 in assay [3], in assay [1] and in assay [2] was under 100 nM each time.

Consider `COc1cccnc1C1(O)CCN(C(=O)c2ccc(NS(=O)(=O)c3cccc4cccnc34)cc2)CC1`, for which the AC50 in assay [2] was over 10000 nM.

On to `O=C(c1ccc(NS(=O)(=O)c2c(F)ccc3ncsc23)cc1)N1CCC(O)(c2ccccc2Cl)CC1`, for which the AC50 in assay [2] is over 10000 nM.

Take `CN1CCC(CC2(O)CCN(C(=O)c3ccc(NS(=O)(=O)c4cccc5scnc45)cc3)CC2)C1=O` (centres undefined): the AC50 in assay [2] is over 10000 nM.

In the case of `O=C(c1ccc(NS(=O)(=O)c2cccc3snnc23)cc1)N1CCC(O)(c2ccccc2Cl)CC1`, in assay [2], the concentration at half-maximal activity (AC50) was over 10000 nM.

`O=C(c1ccc(NS(=O)(=O)c2cccc3c(O)ncnc23)cc1)N1CCC(O)(/C=C/CC(F)(F)F)CC1`: the concentration at half-maximal activity (AC50) in assay [3] and in assay [2] was under 100 nM throughout.

Consider `CC(C)CC1(O)CCN(C(=O)c2ccc(NS(=O)(=O)c3c(F)ccc4ncsc34)cc2)CC1`, for which the AC50 in assay [2] is over 10000 nM.

Take `O=C1NCCC1CC1(O)CCN(C(=O)c2ccc(NS(=O)(=O)c3cccc4nccnc34)cc2)CC1` (centres undefined): in assay [2], the AC50 was over 10000 nM.

As for `O=C(c1ccc(NS(=O)(=O)c2cccc3ccnnc23)cc1)N1CCC(O)(c2ccccc2Cl)CC1`, the AC50 in assay [1] and in assay [2] was over 10000 nM in each case.

Turning to `CCn1cc(CC2(O)CCN(C(=O)c3ccc(NS(=O)(=O)c4cccc5scnc45)cc3)CC2)cn1`, the AC50 in assay [2] is over 10000 nM.

Turning to `Nc1nc(CC2(O)CCN(C(=O)c3ccc(NS(=O)(=O)c4cccc5scnc45)cc3)CC2)cs1`, the AC50 in assay [2] was over 10000 nM.

Consider `CC(C)CC1(OP(=O)(O)O)CCN(C(=O)c2ccc(NS(=O)(=O)c3cccc4nccnc34)cc2)CC1`, for which, in assay [2], the AC50 is over 10000 nM.

With `O=C(c1ccc(NS(=O)(=O)c2cccc3cccnc23)nc1)N1CCC(O)(c2ccccc2)CC1`, the AC50 in assay [2] is over 10000 nM.

On to `Cc1cccc(CC2(O)CCN(C(=O)c3ccc(NS(=O)(=O)c4cccc5cccnc45)cc3)CC2)c1`, for which the AC50 in assay [4], in assay [3] and in assay [1] was under 100 nM each time.

As to `CC(C)(C)C1(O)CCN(C(=O)c2ccc(NS(=O)(=O)c3cccc4cccnc34)cc2)CC1`, the half-maximal activity concentration (AC50) in assay [4], in assay [3] and in assay [1] was under 100 nM throughout.

Take `O=C(c1ccc(NS(=O)(=O)c2cccc3scnc23)cc1)N1CCC(O)(c2cccc(F)c2F)CC1`: the half-maximal activity concentration (AC50) in assay [4], in assay [3] and in assay [1] was under 100 nM in each case.

On to `O=C(c1ccc(NS(=O)(=O)c2cccc3cccnc23)c(F)c1F)N1CCC(O)(c2ccccc2)CC1`, for which, in assay [2], the AC50 was over 10000 nM.

As to `CC1(O)CCN(C(=O)c2ccc(NS(=O)(=O)c3cccc4cccnc34)cc2)CC1`, in assay [2], the half-maximal activity concentration (AC50) was over 10000 nM.

Regarding `O=C(c1ccc(NS(=O)(=O)c2cccc3cccnc23)cc1)N1CCC(O)(Cc2cccc(F)c2F)CC1`, the concentration at half-maximal activity (AC50) in assay [4], in assay [3] and in assay [1] was under 100 nM in each case.

For the compound `CCS(=O)(=O)CC1(O)CCN(C(=O)c2ccc(NS(=O)(=O)c3cccc4scnc34)cc2)CC1`, the AC50 in assay [2] was over 10000 nM.

Turning to `O=C(c1ccc(NS(=O)(=O)c2cccc3c2OCCO3)cc1)N1CCC(O)(Cc2ccccc2)CC1`, the AC50 in assay [4], in assay [3] and in assay [1] was under 100 nM each time.

For the compound `O=C(c1ccc(NS(=O)(=O)c2cccc3cccnc23)cc1)N1CCC(O)(CC2CC2(F)F)CC1` (centres undefined), the AC50 in assay [4], in assay [3] and in assay [1] was under 100 nM each time.

For `O=C(c1ccc(NS(=O)(=O)c2cccc3cccnc23)cc1)N1CCC(O)(c2ncccc2Cl)CC1`, the AC50 in assay [4], in assay [3] and in assay [1] was under 100 nM each time.

As for `O=C(c1ccc(NS(=O)(=O)c2cccc3cccnc23)cc1)N1CCC(O)(c2ccccc2)CC1`, the half-maximal activity concentration (AC50) in assay [4], in assay [3] and in assay [1] was under 100 nM each time.

For `CC(C)CC1(O)CCN(C(=O)c2ccc(NS(=O)(=O)c3ccnc4scnc34)cc2)CC1`, the AC50 in assay [1] and in assay [2] was over 10000 nM in each case.

Take `O=C(c1ccc(NS(=O)(=O)c2cccc3cccnc23)c(Cl)c1)N1CCC(O)(c2ccccc2Cl)CC1`: the AC50 in assay [4], in assay [3] and in assay [1] was under 100 nM in each case.

Consider `O=C(c1ccc(NS(=O)(=O)c2cccc3cccnc23)cc1)N1CCC(O)(c2ncccc2C(F)(F)F)CC1`, for which the AC50 in assay [4], in assay [3] and in assay [1] was under 100 nM throughout.

Take `O=C(c1ccc(NS(=O)(=O)c2cccc3c2OC(F)(F)O3)cc1)N1CCC(O)(c2ccccc2Cl)CC1`: in assay [2], the AC50 was over 10000 nM.

For the compound `O=C(c1ccc(N[S+]([O-])c2cccc3cccnc23)cc1)N1CCC(O)(c2ccccc2Cl)CC1` (centres undefined), in assay [2], the AC50 is over 10000 nM.

Consider `CC(C)CC1(O)CCN(C(=O)c2ccc(NS(=O)(=O)c3cncc4cccnc34)cc2)CC1`, for which the AC50 in assay [4], in assay [3] and in assay [1] was under 100 nM throughout.

For the compound `CC(C)CC1(O)CCN(C(=O)c2ccc(NS(=O)(=O)c3cccn4ccnc34)cc2)CC1`, in assay [2], the AC50 is over 10000 nM.

Turning to `Cn1ccc(CC2(O)CCN(C(=O)c3ccc(NS(=O)(=O)c4cccc5nccnc45)cc3)CC2)n1`, the AC50 in assay [2] is over 10000 nM.

As to `O=C(c1ccc(NS(=O)(=O)c2cccc3scnc23)cc1)N1CCC(O)(c2ncc(Cl)s2)CC1`, the AC50 in assay [2] is over 10000 nM.

Take `O=C1NCCC1CC1(O)CCN(C(=O)c2ccc(NS(=O)(=O)c3cccc4scnc34)cc2)CC1` (centres undefined): the AC50 in assay [2] was over 10000 nM.

Take `O=C(c1ccc(NS(=O)(=O)c2cccc3cccnc23)cc1)N1CCC(O)(c2cccc(C(F)(F)F)n2)CC1`: the AC50 in assay [4], in assay [3] and in assay [1] was under 100 nM each time.

Regarding `CC(C)CC1(O)CCN(C(=O)c2ccc(NS(=O)(=O)c3ccc(F)c4cccnc34)cc2)CC1`, the AC50 in assay [4], in assay [3] and in assay [1] was under 100 nM throughout.

For `CCn1cc(CC2(O)CCN(C(=O)c3ccc(NS(=O)(=O)c4cccc5nccnc45)cc3)CC2)cn1`, the AC50 in assay [2] is over 10000 nM.

For `O=C(c1ccc(NS(=O)(=O)c2cccc3nccnc23)cc1)N1CCC(O)(CCC(F)=C(F)F)CC1`, the AC50 in assay [4], in assay [3] and in assay [1] was under 100 nM in each case.

Take `COc1cccc(CC2(O)CCN(C(=O)c3ccc(NS(=O)(=O)c4cccc5cccnc45)cc3)CC2)c1`: the AC50 in assay [4], in assay [3] and in assay [1] was under 100 nM throughout.

For the compound `CC(C)CC1(O)CCN(C(=O)c2ccc(NS(=O)(=O)c3cnc(O)c4cccnc34)cc2)CC1`, the AC50 in assay [1] and in assay [2] was over 10000 nM in each case.

`O=C(c1ccc(NS(=O)(=O)c2cccc3nccnc23)cc1)N1CCC(O)(CCCC(F)F)CC1`: the AC50 in assay [4], in assay [3] and in assay [1] was under 100 nM throughout.

With `O=C(c1ccc(NS(=O)(=O)c2ccc(F)c3cccnc23)cc1)N1CCC(O)(c2ccccc2Cl)CC1`, the AC50 in assay [4], in assay [3] and in assay [1] was under 100 nM each time.

Turning to `O=C(c1ccc(NS(=O)(=O)c2cccc3cccnc23)cc1)N1CCC(O)(c2cnsc2)CC1`, the AC50 in assay [4], in assay [3] and in assay [1] was under 100 nM in each case.

For `CS(=O)(=O)CCC1(O)CCN(C(=O)c2ccc(NS(=O)(=O)c3cccc4nccnc34)cc2)CC1`, the AC50 in assay [2] was over 10000 nM.

In the case of `O=C(c1ccc(NS(=O)(=O)c2cccc3cccnc23)cn1)N1CCC(O)(c2ccccc2)CC1`, the AC50 in assay [2] was over 10000 nM.

On to `CC(C)CC1(O)CCN(C(=O)c2ccc(NS(=O)(=O)c3cccc4nccnc34)cc2OC(F)F)CC1`, for which the AC50 in assay [4], in assay [3] and in assay [1] was under 100 nM throughout.

Regarding `Cc1ncccc1C1(O)CCN(C(=O)c2ccc(NS(=O)(=O)c3cccc4cccnc34)cc2)CC1`, the AC50 in assay [4], in assay [3] and in assay [1] was under 100 nM in each case.
